Results taken from US9714941B2, “Bio-sensing nanodevice” (Massachusetts Institute of Technology, priority 2007, dated 2017).

Columns and labels:
[1] = biological target: T1, hOR17-4 (Homo sapiens, UniProt P34982); details: cited from earlier work
T1 sequence (P34982 1-312): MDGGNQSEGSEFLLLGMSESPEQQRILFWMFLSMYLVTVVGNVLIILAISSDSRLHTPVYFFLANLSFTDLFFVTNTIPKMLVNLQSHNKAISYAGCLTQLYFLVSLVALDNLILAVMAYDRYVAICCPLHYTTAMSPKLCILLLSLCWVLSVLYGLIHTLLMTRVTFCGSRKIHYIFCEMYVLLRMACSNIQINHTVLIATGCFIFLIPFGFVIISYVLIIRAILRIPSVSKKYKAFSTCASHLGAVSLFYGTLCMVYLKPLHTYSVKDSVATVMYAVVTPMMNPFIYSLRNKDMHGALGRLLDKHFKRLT

[2] = biological target: T1, hOR17-4; test: Surface plasmon resonance (Biacore A100) odorant binding assay; parameters: made in house; host or cells: cell-free expression, wheat germ extract (Roche RTS); uncleaned lysate supernatant captured on the chip; details: SPR
Description: All odorant binding experiments were performed on a Biacore™ A100 (GE Healthcare, Uppsala, Sweden) at 25° C. A Biacore™ A100 was used in the present studies since it has a parallel flow configuration thus allowing assay development e.g. solubilization conditions to be tested and optimized in parallel in a multiplexed format. The sensor chip CM4, amine coupling kit, HBS (10 mM Hepes, 0.15 M NaCl, pH 7.4) and PBS were from (GE Healthcare, Uppsala, Sweden).
The anti Rho-tag antibody 1D4 at 40 μg/ml in 10 mM sodium acetate pH 5.5 was immobilized onto a series S sensor chip using standard amine-coupling chemistry in HBS running buffer at 10 μl/min (33). The amount of coupled 1D4 was about 5500 RU. Control surfaces were prepared similarly without protein derivatization and utilized as a reference surfaces for compound binding experiments.
Cell-free lysate containing the expressed olfactory receptor was centrifuged for […] at 14000×g at 4° C., to remove larger particles. The supernatant, containing about 0.6 mg/ml olfactory receptor, was immediately captured on the surface plasmon resonance (SPR) chip using PBS, 0.1% CHAPS, 0.02% CHS, 0.1% DDM and 1% (v/v) ethanol as running buffer at 10 μl/min.
Fresh odorant lilial solutions were made as follows. […]

[3] = Odorant solubility in SPR running buffer, inferred from the binding response; format: physicochemical
Description: Fresh odorant lilial solutions were made as follows. Pure odorant was diluted in ethanol to 0.5 M. This solution was diluted 67 times in PBS, 0.1% CHAPS, 0.02% CHS, 0.1% DDM to obtain a 7.5 mM odorant solution in running buffer with 1% (v/v) ethanol. Further dilutions were made in running buffer containing 1% (v/v) ethanol to obtain a concentration series of 5 μM, 10 μM, 20 μM and 40 μM of odorant lilial.
For the actual binding measurements, the odorant concentration series were injected from low to high concentration over control and derivatized surfaces for 30 seconds with a flow rate of 60 μl/min. Zero concentration blank buffer cycles were included as negative control samples. Solvent correction procedures were included to compensate for any DMSO related bulk refractive index variations and performed as described previously^(34). Non-specific binding effects to sensor surface CM4 were absent for all analyses reported.

Structure (SMILES): CC(C=O)Cc1ccc(C(C)(C)C)cc1 (stereo not drawn) [lilial]
- agonist activity at hOR17-4 ([1]; in vivo studies): known agonist
- affinity constant reported in vivo ([1]; in vivo): micromolar range
- dose response binding (RU) ([2]; lilial 5-40 μM, 25° C., receptor from cell-free production captured via 1D4 antibody): binding response increases by increasing odorant concentration
- binding constant (approximately estimated) ([2]; exact value could not be determined because of low solubility): within micromolar range
- solubility at high concentrations ([3]; SPR running buffer): very low
- concentration above which the response does not reach equilibrium (odorant starts to fall out of solution) ([3]; running buffer PBS, 0.1% CHAPS, 0.02% CHS, 0.1% DDM, 1% (v/v) ethanol): above 10 μM
